Laboratory results from patent US20250313563A1, “GLYCOGEN SYNTHASE KINASE 3 INHIBITORS AND USES THEREOF” (The Broad Institute, Inc., priority 2022, published 2025).

Key:
[1] = tested on: β-catenin nuclear translocation in SH-SY5Y cells; assay: β-catenin translocation assay; type: cell-based; details: HEK-huTau GSK3α vs SH-SY5Y β-catenin
Method: SH-SY5Y cells were seeded into a 96-well CellCarrier Ultra (Perkin Elmer) plate at a density of 1×10^5 cells/ml in complete DMEM. Sixteen hours following plating, media was changed to DMEM with 2% serum, and compound was added with a D300e Digital Dispenser (Tecan) for an incubation time of six hours. After compound incubation, media was removed, and cells were fixed with 4% PFA for 10 minutes at room temperature. Each well was washed three times with PBS-T and then blocked with buffer (1×PBS with 5% Normal Goat Serum and 0.3% Triton X-100) for 30 minutes at room temperature. β-Catenin primary antibody (Cell Signaling #8480) was added at 1:500 dilution in blocking buffer and the cells were allowed to incubate in primary overnight at 4° C. The following day, primary antibody was removed, each well was washed three times with PBS-T, and secondary antibody (1:2000 anti-rabbit AlexaFluor Plus 488 and 1:10,000 Hoechst 33342) was added and allowed to incubate for 60 minutes at room temperature protected from light. After one-hour, secondary antibody was removed and wells were washed four times with PBS-T before imaging on the Opera Phenix. Sixteen fields per well were imaged with a 20× water lens.
Images were quantified in the Columbus Image Data Storage and Analysis software. Cells were identified using the Hoechst nuclear stain to identify individual nuclei. Intensity of the nuclear stain was also used to determine cell viability (Viable cells <30% CV of Hoechst Intensity)

GSK3β = GSK3β (Rattus norvegicus (Rat), UniProt P18266); assay: In vivo target engagement assay (chemoproteomics, kinobeads), GSK3β; details: P10 rat cortex
Sequence of GSK3β (P18266 whole entry): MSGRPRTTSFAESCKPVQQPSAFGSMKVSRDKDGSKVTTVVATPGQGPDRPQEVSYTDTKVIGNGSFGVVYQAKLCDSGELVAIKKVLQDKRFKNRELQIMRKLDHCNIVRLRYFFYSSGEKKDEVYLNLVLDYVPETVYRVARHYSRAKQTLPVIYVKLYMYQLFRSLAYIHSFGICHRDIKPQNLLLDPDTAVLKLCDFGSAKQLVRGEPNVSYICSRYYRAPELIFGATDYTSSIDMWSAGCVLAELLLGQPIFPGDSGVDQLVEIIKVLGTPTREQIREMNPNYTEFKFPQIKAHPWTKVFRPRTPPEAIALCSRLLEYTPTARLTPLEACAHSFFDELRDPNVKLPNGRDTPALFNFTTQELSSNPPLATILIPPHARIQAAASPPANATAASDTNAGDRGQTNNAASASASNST
Method: Chemoproteomics competition was used to evaluate inhibitor selectivity and target engagement in vivo. Frozen cortexes were prepared for homogenization with 1.2 mL of Lysis Buffer (50 mM Tris-HCl, 0.8% NP-40 ((octylphenoxy poly(ethyleneoxy) ethanol)), 5% glycerol, 150 mM NaCl, 1.5 mM MgCl2, 25 mM NaF, 1 mM sodium vanadate, 1 mM DTT, pH 7.5 and supplemented with protease inhibitors). Tissues were homogenized in FastPrep-24 5G instrument at maximum oscillations for 20 seconds. The resulting brain homogenate was clarified by centrifugation for 1 h at 145 000 g, 4° C. The protein concentration of the supernatant was determined by BCA assay and each sample was diluted to final concentration of 5 mg/mL with lysis buffer. […] The dry peptide mixture was reconstituted in 15 μL of 0.1% trifluoro acetic acid and analyzed on ID nanoLC-MS/MS platform using a standardized 140 min method. Peptides were separated on an Easy-Spray column (75 μm×50 cm, PepMAP C18, 1.9 μm) at 250 nL/min, analyzed on a QExactive HF mass spectrometer at data dependent acquisition (DDA) mode with MS1 at 60,000 and MS2 at 15,000 resolution, respectively. […]
To measure direct target engagement of the compound for both GSK3α and GSK3β competitive chemoproteomics methodology was used. […] Enriched proteins were analyzed by liquid chromatography coupled with tandem mass spectrometry. […]

## CCC1(c2cccc(C(F)(F)F)c2)C2=C(Nc3n[nH]cc31)C(F)C(C)(C)CC2=O (single isomer, unassigned) [Compound 837646, 4-ethyl-8-fluoro-7,7-dimethyl-4-(3-(trifluoromethyl)phenyl)-2,4,6,7,8,9-hexahydro-5H-pyrazolo[3,4-b]quinolin-5-one]
[1]
  window between potency on tau phosphorylation by GSK3α and concentrations affecting β-catenin stabilization: > 20 fold
GSK3β; 24 hr
  binding to GSK3β, 24 hr: no significant binding detected
GSK3β; three hours after dosing (Cmax, 60 mg/kg)
  target engagement for GSK3β, 3 hours: 40%
